Tested on: primary fetal rat neurons
Experiment: Cell survival of primary cortical neurons (cell counts)
Format: cell-based
Settings: 24 hours, Control 100 ± 1.57, mixture: 30 ppb of the element from each compound; for Viable Cell Number (Mean ± SEM, n = 6): 150 ppb selenium compound(s); for Viable Cell Number (Mean + SEM, n = 6): 150 ppb sulfur compound(s)
Method: For primary neurons, dissociated primary cortical neuron cultures were established from E-18 rat embryos as previously described (Lovell et al., Free Radic. Biol. Med. 2000; Lovell et al., Neurobiol. Aging 2001). Studies were carried out on cells 7 days in culture by switching to Locke's solution consisting of 1 mL of 154 mM NaCl, 5.6 mM KCl, 2.3 mM CaCl2, 1.0 mM MgCl2, 3.6 mM NaHCO3, 10 mM glucose, 5 mM HEPES (pH 7.2) with 10 mg/L gentamicin sulfate. Primary neurons were treated for 24 hours in Locke's solution with the indicated selenium and sulfur compounds in Table 5. Cell counts were performed to measure cell survival/toxicity.
The effects of the selenium and sulfur compounds, identified as components of water extracts of selenium-enriched yeast, on neuronal cell survival was also tested. Primary neurons isolated from fetal rat brain were incubated with chemically synthesized individual selenium and sulfur compounds that were identified as components of water extracts of selenium-enriched yeast (Table 5). In this case, the elemental concentration of each compound identified in Table 5 was 150 ppb and, where mixtures were used, the 150 ppb treatment was made up of 30 ppb of the element from each of the five compounds in question.

Structure (SMILES)	Viable Cell Number (Mean ± SEM, n = 6)	Viable Cell Number (Mean + SEM, n = 6)
C[Se]C[C@H](N)C(=O)O [A, L-Methylselenocysteine]	94.45 ± 1.72	
C[Se]CC[C@H](N)C(=O)O [B, L-Selenomethionine]	90.59 ± 6.82	
CSC[C@H]1O[C@@H](n2cnc3c(N)ncnc32)[C@H](O)[C@@H]1O [Compound H, 5′-deoxy-5′-methylthioadenosine]		100.24 ± 9.45
CSC[C@H](N)C(=O)O [F, L-Methylcysteine]		96.48 ± 3.89
CSCC[C@H](N)C(=O)O [G, L-methionine]		103.84 ± 4.98

Source: patent US10201558B2, “Compositions of selenoorganic compounds and methods of use thereof” (Alltech, Inc., priority 2014, dated 2019)
